In patent US4251658A, “3-(1-Pyrazolyl)-pyridazine derivatives” (Richter Gedeon Vegyeszeti Gyar Rt., priority 1977, dated 1981):

Columns and labels:
[1] = molecular target: prostaglandin-A isomerase (PGAI); experiment: Prostaglandin-A isomerase (PGAI) inhibiting action, PGAI preparation from the blood-plasma of pigs; format: biochemical; details: read-out: I50% inhibiting levels in final concentrations, PGAI
Excerpt: (§1) The I50%, i.e. the index of inhibition is defined as the concentration of the substance inhibiting to 50% the function of the corresponding enzyme.

[2] = molecular target: T1, prostaglandin dehydrogenase (PGDH) (Sus scrofa, UniProt A0ACM8QJV0); experiment: Prostaglandin dehydrogenase (PGDH) inhibiting action, PGDH preparation from pig-lung; format: biochemical; details: read-out: I50% inhibiting levels in final concentrations, PGDH
T1 construct: PGDH preparation from pig-lung; from tissue; host or cells: pig lung
T1 sequence (A0ACM8QJV0 1-266): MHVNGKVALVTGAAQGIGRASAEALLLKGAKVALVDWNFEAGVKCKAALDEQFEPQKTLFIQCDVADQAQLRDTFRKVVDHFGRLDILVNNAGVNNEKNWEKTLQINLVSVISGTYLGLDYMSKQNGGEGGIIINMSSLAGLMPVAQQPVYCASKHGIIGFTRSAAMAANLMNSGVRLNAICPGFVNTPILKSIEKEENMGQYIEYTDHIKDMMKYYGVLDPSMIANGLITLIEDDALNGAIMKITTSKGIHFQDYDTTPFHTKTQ
Excerpt: as §1

[3] = Hypotensive action in narcotized cats; format: in vivo; details: pentobarbital narcosis
Procedure: The substances were administered in doses of 5, 2.5 and 1 mg./kg., respectively, and Hydralazine (1-hydrazinophthalazine hydrochloride) was used as reference compound.

[4] = in vivo; details: mouse, mice, oral, read-out: Acute oral toxicity on mice LD50
[5] = Systolic blood pressure in the caudal artery of spontaneously hypertensive (Wistar-Okamoto) rats, oral treatment; format: in vivo; details: for decrease in systolic blood pressure: oral

IC50 [1] | SMILES | Decrease in blood pressure in Hgmm by 1 mg./kg. [3] | LD50 [4] | also measured
100 µM | CCOC(=O)c1cnn(-c2ccc(NC3CCCCC3)nn2)c1N [Example 5, 3-Cyclohexylamino-A] | – | – | –
50 µM | CCOC(=O)c1cnn(-c2ccc(NCc3ccco3)nn2)c1N [Example 6, 3-Furfurylamino-A] | – | – | IC50 [2]: 55 µM
44 µM | CCOC(=O)c1cnn(-c2ccc(NCCN(CC)CC)nn2)c1N [Example 11, 3-(2-Diethylaminoethylamino)-A] | – | – | –
75 µM | CCOC(=O)c1cnn(-c2ccc(NCc3ccccn3)nn2)c1N [Example 16, 3-(2Pyridylmethylamino)-A] | – | – | IC50 [2]: 150 µM
25 µM | CCOC(=O)c1cnn(-c2ccc(NCc3cccnc3)nn2)c1N [Example 17, 3-(3-Pyrdiylmethylamino)-A] | – | – | IC50 [2]: 200 µM
36 µM | CCOC(=O)c1cnn(-c2ccc(NCc3ccncc3)nn2)c1N [Example 18, 3-(4-Pyridylmethylamino)-A] | – | – | –
180 µM | CCOC(=O)c1cnn(-c2ccc(NC(C)c3ccccc3)nn2)c1N (centres unmarked) [Example 20, 3-(1-Phenylethylamino)-A] | – | – | –

More lines, now with the values behind:

SMILES | IC50 [1] | Decrease in blood pressure in Hgmm by 1 mg./kg. [3] | LD50 [4] | also measured
CCOC(=O)c1cnn(-c2ccc(NCc3ccccc3)nn2)c1N [Example 7, 3-Benzylamino-A] | – | -15 Hgmm | 1000 mg/kg | –
CN(N)c1ccc(-n2ncc(C#N)c2N)nn1 [Example 30, 3-(1-methylhydrazino)-6-(4-cyano-5-amino-1-pyrazolyl)-pyridazine] | – | -40 Hgmm | 200 mg/kg | tachycardia ([5]; against Hydralazine): does not cause any significant tachycardia; decrease in systolic blood pressure ([5]; 20 mg./kg., after 2 hours): 31%; decrease in systolic blood pressure ([5]; 20 mg./kg., after 5 hours): 16%; decrease in systolic blood pressure ([5]; 20 mg./kg., after 24 hours): 15%
NNC(=O)c1cnn(-c2ccc(N(CCO)CCO)nn2)c1N [Example 31, 3-[bis(2-Hydroxyethyl)-amino]-6-(4-carbazoyl-5-amino-1-pyrazolyl)-pyridazin] | – | -10 Hgmm | 250 mg/kg | –
NNC(=O)c1cnn(-c2cccnn2)c1N [Example 32] | – | -10 Hgmm | 200 mg/kg | –
COc1ccc(CCNc2ccc(-n3ncc(C(=O)NN)c3N)nn2)cc1OC [Example 33, 3-(3,4-Dimethoxyphenylethyl-amino)-B] | – | -10 Hgmm | ~150 mg/kg | –
Cl.NNc1nncc2ccccc12 [Hydralazine, 1-hydrazinophthalazine hydrochloride, reference compound] | 90 µM | -40 Hgmm | – | decrease in systolic blood pressure ([5]; 10 mg./kg. (reference), after 2 hours): 21%; decrease in systolic blood pressure ([5]; 10 mg./kg. (reference), after 5 hours): 22%; decrease in systolic blood pressure ([5]; 10 mg./kg. (reference), after 24 hours): 15%
